{"source": "patent US6747050B1", "about": "“Isoxazoline derivative and a process for the preparation thereof” (LG Chem Investment Ltd., priority 1999, dated 2004)", "key": {"caspase-1": {"biological_target": "T1, caspase-1 (Homo sapiens, UniProt P29466)", "T1 construct": "made in house; host or cells: transformed bacterium (pET vector)", "T1 sequence (P29466 120-297 limits assumed)": "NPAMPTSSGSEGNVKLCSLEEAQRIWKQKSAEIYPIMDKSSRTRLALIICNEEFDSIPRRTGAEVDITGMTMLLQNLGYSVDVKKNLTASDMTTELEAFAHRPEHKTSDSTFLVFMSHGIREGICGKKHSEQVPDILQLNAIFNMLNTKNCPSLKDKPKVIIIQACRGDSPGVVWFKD", "T1 sequence (P29466 317-404 limits assumed)": "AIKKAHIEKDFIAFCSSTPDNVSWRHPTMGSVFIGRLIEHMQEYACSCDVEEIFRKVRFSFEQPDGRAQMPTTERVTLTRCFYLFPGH", "assay": "Recombinant caspase enzyme inhibition, fluorogenic substrate Ac-YVAD-AMC", "assay_type": "biochemical", "settings": "Irreversible Inhibitors; read-out: Kobs/[I] for caspase-1", "experimental": "(§1) In the present experiment recombinant caspases were purified from a transformed bacterium after human caspase genes were cloned into the expression vector pET, and then used in the experiment (Thornberry, N. A. et al. Nature, 1992, 356, 768. Thornberry, N. A. Methods in Enzymology, 1994, 615.).\n(§2) Enzymatic activity was measured by a known procedure (Walker N. P. C. et al., Cell 1994, 78, 343). Briefly, 10 ng of recombinant protein was mixed with 50 mM Tris(pH 7.0), 1 mM DTT, 0.5 mM EDTA, 10% Glycerol buffer containing 1˜100 μM of enzyme substrate, Ac-YVAD-AMC or Ac-DEVD-AMC and then the changes by isolated AMC at 37° C. were recorded. The inhibitory activity for caspases was calculated from the early enzyme reaction rate by measuring the changes with fluorescence excited at […] and emitted at 460 nm (Range; Ki<100 nM)."}, "caspase-3": {"biological_target": "T2, caspase-3 (Homo sapiens, UniProt P42574)", "T2 construct": "made in house; host or cells: transformed bacterium (pET vector)", "T2 sequence (P42574 29-175 limits assumed)": "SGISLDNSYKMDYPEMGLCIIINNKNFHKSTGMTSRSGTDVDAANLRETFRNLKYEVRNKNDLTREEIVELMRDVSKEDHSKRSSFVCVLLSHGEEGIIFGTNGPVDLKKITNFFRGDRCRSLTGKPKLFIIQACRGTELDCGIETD", "T2 sequence (P42574 176-277 limits assumed)": "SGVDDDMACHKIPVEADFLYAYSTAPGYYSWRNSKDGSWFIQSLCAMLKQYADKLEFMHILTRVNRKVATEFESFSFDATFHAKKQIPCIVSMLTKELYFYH", "assay": "Recombinant caspase enzyme inhibition, fluorogenic substrate Ac-DEVD-AMC", "assay_type": "biochemical", "settings": "Irreversible Inhibitors; read-out: Kobs/[I] for caspase-3", "experimental": "as §1, §2"}, "C57BL/6 female mice [1]": {"test_system": "C57BL/6 female mice", "assay": "anti-Fas antibody (Jo2)-induced liver apoptosis and lethality in mice", "assay_type": "in vivo", "experimental": "(§3) […] C57BL/6 female mice (18-20 g) were injected i.p. with compound 33MP dissolved in vehicle which consists of olive oil and 10% DMSO, or vehicle alone, at 1 hr before i.v. injection with 10 μg of Anti-Fas antibody (Jo2). Following 4 hrs of i.v. injection with Jo2 antibody, animals were placed under inhaled isoflurane anesthesia for blood collection and liver isolation. Mice were also i.p. injected with 0.2 μg/20 g of TNFα and 12 mg/20 g of D-galactosamine (TNFα/GalN) and compound 33MP or its salt form (Compound 33MP-Na). 8 hrs later, blood and liver tissues were isolated from anesthetized animals. The liver tissues were snap-frozen and stored at −80° C. until use. Plasma was isolated from blood by centrifugation at 12,000×g for 10 min at 4° C. and stored at −80° C. In some experiments for animal mortality, mice were i.p. injected with TNFα/GalN and caspase inhibitor was injected 1 hr before, simultaneously, 2 hrs, or 4 hrs after TNFα/GalN injection\n(§4) Whole tissues (0.5 g) were homogenated in ice-cold lysis buffer (5 mM Tris, 20 mM EDTA, 0.5% Triton-X 100, pH8.0). […] The supernatant was obtained and extracted twice with a mixture of phenol and chloroform. One-tenth volume of 3 M sodium acetate was added to the solution, and DNA was precipitated by adding an equal volume of isopropanol. After storing at −20° C. overnight, a DNA pellet was obtained by centrifugation at 12,000×g for 15 min. at 4° C. and washed twice with 75% ethanol. The pellet was dried and resuspended in 100 μl of 20 mM Tris-HCl, pH 8.0. After digesting RNA with DNase-free RNase (0.1 mg/ml, at 37° C. for 1 hr, samples […] were electrophoresed through a 1.2% agarose gel in 450 mM Tris borate+EDTA (TBE), pH 8.0 buffer. DNA was photographed under visualized with UV light.\n(§5) Liver tissues were homogenated in 10 mM HEPES buffer containing protease inhibitors (5 μg/ml aprotinin, 5 μg/ml pepstatin A, 10 μg/ml leupeptin, and 0.5 mM PMSF) and lysed by three feeze/thaw cycles. […] Protein concentration was determined with BCA protein assay reagent (pierce, Rockford, Ill.). Cytosol containing 200 μg protein was combined in 96-well plate with […] of synthetic substrate Ac-DEVD-pNA in 150 μl of 100 mM HEPES, pH 7.4, containing the protease inhibitors, and the reaction was conducted for 1 hr at 37° C. […] Plasma level of aspartate aminotransferase (AST) was analyzed by spectrophotometry using each enzyme assay kit (Sigma)."}, "C57BL/6 female mice [2]": {"test_system": "C57BL/6 female mice", "assay": "TNFα-induced liver toxicity and lethality in mice", "assay_type": "in vivo", "settings": "TNFα/ActD", "experimental": "as §3, with “Mice were also i.p. injected with 0.2 μg/20 g of TNFα and 12 mg/20 g of D-galactosamine (TNFα/GalN) and compound 33MP or its salt form (Compound 33MP-Na).” left out\nas §4, §5"}, "[3]": {"test_system": "caspase-3-like activity (Ac-DEVD-pNA)", "assay": "Caspase-3-like activity in TNFα/ActD-treated primary rat hepatocytes", "assay_type": "cell-based", "settings": "100 μM, 8 hrs", "experimental": "Primary rat hepatocytes were isolated and purified from male Sprague-Dawley rats using a collagenase digestion method. The hepatocytes were purified over 30% Percoll gradient by centrifugation at 1,000×g for 10 min. at 4° C. […] The cells were plated on collagen-coated tissue culture plates at a density of 2×10^5 cells/well in 12-well plates for cell viability analysis or 5×10^6 cells/100 mm dish for enzyme assays. After 18 hrs preculture, the cells were treated with 2,000 units/ml TNFα and 0.2 μg/ml Actinomycin (ActD). Caspase activity and cell viability was determined by colorimetry using a caspase substrate Ac-DEVD-pNA and crystal violet staining method at 8 hrs and 12 hrs, respectively."}}}
{"smiles": "CC(C)[C@H](NC(=O)c1cc2ccccc2[nH]1)C1=NOC(Cc2ccccc2)(C(=O)N[C@@H](CC(=O)O)C(=O)COC(=O)c2c(Cl)cccc2Cl)C1", "note": "(stereo partly drawn) [Compound 64, (3S)-3-{3-[2-Methyl-(1S)-1-(indole-2-carbonylamino)-propyl]-5-phenylmethyl-4,5-dihydro-isoxazole-5-carbonylamino}-4-keto-5-(2,6-dichlorobenzoyloxy)-pentanoic Acid]", "values": [{"measurement": "kinact/KI", "setting": "caspase-1", "value": 707000, "unit": "M⁻¹ s⁻¹"}, {"measurement": "kinact/KI", "setting": "caspase-3", "value": 1230, "unit": "M⁻¹ s⁻¹"}]}
{"smiles": "CC(C)[C@H](NC(=O)c1c[nH]c2ccccc12)C1=NOC(Cc2ccccc2)(C(=O)N[C@@H](CC(=O)O)C(=O)COC(=O)c2c(Cl)cccc2Cl)C1", "note": "(stereo partly drawn) [Compound 66, (3S)-3-{3-[2-Methyl-(1S)-1-(indole-3-carbonylamino)-propyl]-5-phenylmethyl-4,5-dihydro-isoxazole-5-carbonylamino}-4-keto-5-(2,6-dichlorobenzoyloxy)-pentanoic Acid]", "values": [{"measurement": "kinact/KI", "setting": "caspase-1", "value": 357000, "unit": "M⁻¹ s⁻¹"}, {"measurement": "kinact/KI", "setting": "caspase-3", "value": 1560, "unit": "M⁻¹ s⁻¹"}]}
{"smiles": "CC(C)[C@H](NC(=O)c1cccc2ccccc12)C1=NOC(C)(C(=O)N[C@@H](CC(=O)O)C(=O)COC(=O)c2c(Cl)cccc2Cl)C1", "note": "(stereo partly drawn) [Compound 68, (3S)-3-{3-[2-Methyl-(1S)-1-(naphthalene-1-carbonylamino)-propyl]-5-methyl-4,5-dihydro-isoxazole-5-carbonylamino}-4-keto-5-(2,6-dichlorobenzoyloxy)-pentanoic Acid]", "values": [{"measurement": "kinact/KI", "setting": "caspase-1", "value": 616000, "unit": "M⁻¹ s⁻¹"}, {"measurement": "kinact/KI", "setting": "caspase-3", "value": 2390, "unit": "M⁻¹ s⁻¹"}]}
{"smiles": "CC(C)[C@H](NC(=O)c1cccc2ccccc12)C1=NOC(Cc2ccccc2)(C(=O)N[C@@H](CC(=O)O)C(=O)COC(=O)c2c(Cl)cccc2Cl)C1", "note": "(stereo partly drawn) [Compound 33MP, (3S)-3-{3-[2-Methyl-(1S)-1-(1-naphthalenecarbonylamino)-propyl]-5-phenylmethyl-4,5-dihydro-isoxazole-5-carbonylamino}-4-keto-5-(2,6-dichlorobenzoyloxy)-pentanoic Acid]", "values": [{"measurement": "liver apoptosis determined by DNA fragmentation (FIG. 9A)", "setting": "C57BL/6 female mice [1]; 0.4 mg/20 g, 1 mg/20 g i.p. 1 hr before antibody, 4 hrs", "value": "suppressed the liver apoptosis in a dose-dependent manner"}, {"measurement": "release of liver enzyme AST (FIG. 9B)", "setting": "C57BL/6 female mice [1]; 4 hrs after anti-Fas antibody", "value": "significantly suppressed"}, {"measurement": "caspase-3-like activity in liver tissues (FIG. 10)", "setting": "C57BL/6 female mice [1]; anti-Fas antibody increased activity about 25-folds", "value": "abrogated"}, {"measurement": "inhibition of mortality compared with Z-VAD-fmk", "setting": "C57BL/6 female mice [1]; mouse, in vivo", "value": "more effective"}, {"measurement": "suppression of AST release compared with Z-VAD-fmk", "setting": "C57BL/6 female mice [1]; mouse, in vivo", "value": "higher"}, {"measurement": "suppression of liver apoptosis compared with Z-VAD-fmk", "setting": "C57BL/6 female mice [1]; mouse, in vivo", "value": "higher"}, {"measurement": "reduction of mortality (FIG. 11)", "setting": "C57BL/6 female mice [1]; within 24 hrs, antibody alone 85% died", "value": "about 30%"}, {"measurement": "DNA fragmentation in liver tissues (FIG. 12A)", "setting": "C57BL/6 female mice [2]", "value": "significantly reduced"}, {"measurement": "caspase-3-like activity in liver (FIG. 13)", "setting": "C57BL/6 female mice [2]", "value": "suppressed"}, {"measurement": "inhibitory effect on caspase activity compared with Z-VAD-fmk", "setting": "C57BL/6 female mice [2]", "value": "higher"}, {"measurement": "protective effect compared with Z-VAD-fmk", "setting": "C57BL/6 female mice [2]", "value": "higher"}, {"measurement": "release of AST (FIG. 12B)", "setting": "C57BL/6 female mice [2]", "value": "suppressed"}, {"measurement": "caspase-3-like activity increased by TNFα/ActD (FIG. 15A)", "setting": "[3]", "value": "not different"}]}
